Laboratory results from ChEMBL document CHEMBL5316277, “Discovery of Spiro[pyrrolidine-3,3'-oxindole] LXRβ Agonists for the Treatment of Osteoporosis” (J Med Chem, 2023).
The source made the active and inactive calls. The rule behind the calls is not given here.

These molecules were tested on BMMC (assay: Anti-osteoporosis activity in C57BL/6 mouse bone marrow macrophage cells assessed as inhibition of RANKL-induced osteoclastogenesis measured after 5 days in presence of MCSF by TRAP staining based assay). Details: C57BL/6, BMMC, 120 h.
Type: functional, cell-based

Q: For `COC(=O)Cc1ccc(-c2cc(F)cc([C@H]3N(C(=O)OC(C)(C)C)CC[C@]34C(=O)Nc3ccccc34)c2)cc1Cl`, which IC50 is on record?
A: 3.4 µM

Q: With `COC(=O)c1ccc(-c2cc(F)cc([C@H]3N(C(=O)OC(C)(C)C)CC[C@]34C(=O)Nc3ccccc34)c2)cc1Cl` as the molecule, how does the IC50 read?
A: 8.78 µM

Q: With `CC(C)(C)OC(=O)N1CC[C@]2(C(=O)Nc3ccccc32)[C@H]1c1cccc(-c2ccc(CO)c(S(C)(=O)=O)c2)c1` as the molecule, how does the IC50 read?
A: 0.2 µM

Q: With `COC(=O)c1ccc(-c2cccc([C@H]3N(C(=O)OC(C)(C)C)CC[C@]34C(=O)N(C)c3ccccc34)c2)cc1S(C)(=O)=O` as the molecule, how does the IC50 read?
A: 0.2 µM

Q: `COC(=O)c1ccc(-c2cc(F)cc([C@H]3N(C(=O)OC(C)(C)C)CC[C@]34C(=O)N(C)c3ccccc34)c2)cc1S(C)(=O)=O` was tested. Which IC50 did it give?
A: 2.17 µM

Q: `COC(=O)Cn1ccc2cc(-c3cc(F)cc([C@H]4N(C(=O)OC(C)(C)C)CC[C@]45C(=O)Nc4ccccc45)c3)ccc21` was tested. Which IC50 did it give?
A: 3.4 µM

Q: How did the IC50 turn out when `COC(=O)c1c[nH]c2cc(-c3cc(F)cc([C@H]4N(C(=O)OC(C)(C)C)CC[C@]45C(=O)Nc4ccccc45)c3)ccc12` was run?
A: 2.89 µM

Q: Which IC50 does the source give for `COC(=O)c1c(F)cc(-c2cc(F)cc([C@H]3N(C(=O)OC(C)(C)C)CC[C@]34C(=O)Nc3ccccc34)c2)cc1F` here?
A: 4.14 µM

Q: `CC(C)(C)CC(=O)N1CC[C@]2(C(=O)Nc3ccccc32)[C@H]1c1cccc(-c2ccc(CO)c(S(C)(=O)=O)c2)c1` was tested. Which IC50 did it give?
A: 0.36 µM

Q: How did the IC50 turn out when `COC(=O)c1ccc(-c2cc(F)cc([C@H]3N(S(=O)(=O)C(C)C)CC[C@]34C(=O)N(C)c3ccccc34)c2)cc1S(C)(=O)=O` was run?
A: 0.2 µM

Q: `COC(=O)c1cn(C)c2cc(-c3cc(F)cc([C@H]4N(C(=O)OC(C)(C)C)CC[C@]45C(=O)Nc4ccccc45)c3)ccc12` was tested. Which IC50 did it give?
A: 1.56 µM

Q: `COCc1ccc(-c2cc(F)cc([C@H]3N(C(=O)OC(C)(C)C)CC[C@]34C(=O)N(C)c3ccccc34)c2)cc1S(C)(=O)=O` was tested. Which IC50 did it give?
A: 0.22 µM

Q: How did the IC50 turn out when `COCc1ccc(-c2cc(F)cc([C@H]3N(S(=O)(=O)C(C)C)CC[C@]34C(=O)N(C)c3ccccc34)c2)cc1S(C)(=O)=O` was run?
A: 0.2 µM

These molecules were tested on BMMC (assay: Anti-osteoporosis activity in C57BL/6 mouse bone marrow macrophage cells assessed as inhibition of RANKL-induced osteoclastogenesis at more than 10 uM measured after 5 days in presence of MCSF by TRAP staining based assay). Details: time 5.0 day.
Type: functional, cell-based

Q: With `CC(C)(C)OC(=O)N1CC[C@]2(C(=O)Nc3ccccc32)[C@H]1c1cc(F)cc(-c2ccc(CC(=O)O)c(Cl)c2)c1` as the molecule, how does the inhibition read?
A: inactive

Q: Which inhibition does the source give for `CC(C)(C)OC(=O)N1CC[C@]2(C(=O)Nc3ccccc32)[C@H]1c1cc(F)cc(-c2ccc(C(=O)O)c(S(C)(=O)=O)c2)c1` here?
A: inactive

What follows are molecules tested on BMMC (assay: Cytotoxicity against C57BL/6 mouse bone marrow macrophage cells assessed as reduction in cell viability up to 10 uM incubated for 72 hrs by MTT assay). Details: not given.
Type: toxicity, cell-based

Q: Which Activity does the source give for `COC(=O)c1ccc(-c2cc(F)cc([C@H]3N(C(=O)OC(C)(C)C)CC[C@]34C(=O)Nc3ccccc34)c2)cc1S(C)(=O)=O` here?
A: Non-Toxic
